Values after ≈ are worked out from the molar mass of the structure shown. Read-outs that look alike come from different tables or passages of the source.
Columns and labels:
[1] = system: Mutant-6 of Enterococcus fecalis NR 31975; experiment: microbe, parasite or virus in culture; type: cell-based; conditions: Enterococcus
[2] = system: Staphylococcus epidermidis NRS 101; experiment: MIC against Staphylococci, broth microdilution; type: cell-based; conditions: Staphylococcus epidermidis, NRS101; TSB; read-out: MIC
Summary of the method: (§1)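 CLSI broth microdilution in tryptone soy broth, inoculum about 5×10^5 CFU/mL from overnight agar cultures at 0.5 McFarland, with serially diluted compound. Plates were incubated aerobically at 37° C for 18-20 h. MIC was the lowest concentration with no visible growth.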

[3] = system: Mutant-9 of Enterococcus fecalis NR 31975; experiment: microbe, parasite or virus in culture; type: cell-based; conditions: Enterococcus
[4] = system: Mutant-13 of Enterococcus fecalis NR 31975; experiment: microbe, parasite or virus in culture; type: cell-based; conditions: Enterococcus
[5] = system: Mutant-7 of Enterococcus fecalis NR 31975; experiment: microbe, parasite or virus in culture; type: cell-based; conditions: Enterococcus
[6] = system: MRSA NRS 384 (MRSA USA300); experiment: MIC against Staphylococci, broth microdilution; type: cell-based, Staphylococcus aureus; conditions: Staphylococcus aureus; TSB; read-out: MIC
Summary of the method: as §1

[7] = system: Mutant-4 of Enterococcus fecalis NR 31975; experiment: microbe, parasite or virus in culture; type: cell-based; conditions: Enterococcus
[8] = system: Enterococcus faecium Patient #3-1 NR-31912; experiment: MIC, broth microdilution in TSB; type: cell-based; conditions: Enterococcus faecium, TSB
Summary of the method: (§2)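 CLSI broth microdilution: overnight agar-grown enterococci adjusted to 0.5 McFarland, diluted in TSB to about 5×10^5 CFU/mL, then exposed to serially diluted compounds. Incubated aerobically at 37 °C for 18-20 h. MIC is the lowest concentration giving no visible growth.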

[9] = system: Enterococcus fecalis Strain SF24413 NR31971; experiment: MIC, broth microdilution in TSB; type: cell-based; conditions: Enterococcus, TSB
Summary of the method: as §2

[10] = system: Enterococcus faecium E417-HM-965; experiment: MIC, broth microdilution in TSB; type: cell-based; conditions: Enterococcus faecium, E417HM965, TSB
Summary of the method: as §2

[11] = system: Enterococcus fecalis Strain SF 28073-NR31972; experiment: MIC, broth microdilution in TSB; type: cell-based; conditions: Enterococcus, TSB
Summary of the method: as §2

[12] = system: Enterococcus faecium Patient #2-1-NR-31909; experiment: MIC, broth microdilution in TSB; type: cell-based; conditions: Enterococcus faecium, TSB
Summary of the method: as §2

[13] = system: Enterococcus faecalis—S613 HM-334; experiment: MIC, broth microdilution in TSB; type: cell-based; conditions: Enterococcus, TSB
Summary of the method: as §2

[14] = system: Enterococcus fecalis Strain SF 24397 NR31970; experiment: MIC, broth microdilution in TSB; type: cell-based; conditions: Enterococcus, TSB
Summary of the method: as §2

[15] = system: Enterococcus fecalis Strain MMH594-NR31975; experiment: MIC, broth microdilution in TSB; type: cell-based; conditions: Enterococcus, TSB
Summary of the method: as §2

[16] = system: Bacteroides dorei—CL02T12C06 HM-719; experiment: MIC against human normal gut microbiota; type: cell-based; conditions: Bacteroides; BHIS broth, anaerobic, 48 hours; read-out: MIC
Summary of the method: (§3)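 Broth microdilution: 0.5 McFarland suspensions in PBS diluted to ~5×10^5 CFU/ml, BHIS broth for Bacteroides/Bifidobacterium, MRS broth for Lactobacillus. Serial compound dilutions, 48 h, 37° C; anaerobic vs 5% CO2 respectively.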

[17] = system: Lactobacillus casei ATCC 334; experiment: MIC against human normal gut microbiota; type: cell-based; conditions: Lacticaseibacillus casei, ATCC334; MRS broth, 5% CO2, 48 hours; read-out: MIC
Summary of the method: as §3

[18] = system: Bacteroides fragilis—CL07T00C01 HIM-709; experiment: MIC against human normal gut microbiota; type: cell-based; conditions: Bacteroides; BHIS broth, anaerobic, 48 hours; read-out: MIC
Summary of the method: as §3

[19] = system: Lactobacillus gasseri EX336960VC03 HIM-400; experiment: MIC against human normal gut microbiota; type: cell-based; conditions: Lactobacillus gasseri; MRS broth, 5% CO2, 48 hours; read-out: MIC
Summary of the method: as §3

[20] = system: Bifidobacterium longum subsp. Longum—44B HM 845; experiment: MIC against human normal gut microbiota; type: cell-based; conditions: Bifidobacterium longum; BHIS broth, anaerobic, 48 hours; read-out: MIC
Summary of the method: as §3

[21] = system: Bifidobacterium breve—JCP7499 HIM 1120; experiment: MIC against human normal gut microbiota; type: cell-based; conditions: Bifidobacterium; BHIS broth, anaerobic, 48 hours; read-out: MIC
Summary of the method: as §3

[22] = system: Mutant-14 of Enterococcus fecalis NR 31975; experiment: microbe, parasite or virus in culture; type: cell-based; conditions: Enterococcus
[23] = system: Mutant-15 of Enterococcus fecalis NR 31975; experiment: microbe, parasite or virus in culture; type: cell-based; conditions: Enterococcus
[24] = system: Mutant-5 of Enterococcus fecalis NR 31975; experiment: microbe, parasite or virus in culture; type: cell-based; conditions: Enterococcus
[25] = system: Mutant-2 of Enterococcus fecalis NR 31975; experiment: microbe, parasite or virus in culture; type: cell-based; conditions: Enterococcus

CCc1ccc(C(=O)Nc2nnc(S(N)(=O)=O)s2)cc1 [CAI0017, 4-Ethyl-N-(5-sulfamoyl-1,3,4-thiadiazol-2-yl)benzamide]
MIC [1]: 8 µg/mL (≈ 25.6 µM)
MIC [2]: > 64 µg/mL
MIC [3]: 16 µg/mL (≈ 51.2 µM)
MIC [4]: 16 µg/mL (≈ 51.2 µM)
MIC [5]: 8 µg/mL (≈ 25.6 µM)
MIC [6]: > 64 µg/mL
MIC [7]: 16 µg/mL (≈ 51.2 µM)
MIC ([8]; Table 1, read-out: MIC): 1 µg/mL (≈ 3.2 µM)
MIC ([8]; Table 7, read-out: MIC in TSB): 1 µg/mL (≈ 3.2 µM)
MIC ([9]; Table 1, read-out: MIC): 1 µg/mL (≈ 3.2 µM)
MIC ([9]; Table 7, read-out: MIC in TSB): 1 µg/mL (≈ 3.2 µM)
MIC ([10]; Table 1, read-out: MIC): 0.25 µg/mL (≈ 0.8 µM)
MIC ([10]; Table 7, read-out: MIC in TSB): 0.25 µg/mL (≈ 0.8 µM)
MIC ([11]; Table 1, read-out: MIC): 1 µg/mL (≈ 3.2 µM)
MIC ([11]; Table 7, read-out: MIC in TSB): 1 µg/mL (≈ 3.2 µM)
MIC ([12]; Table 1, read-out: MIC): 0.25 µg/mL (≈ 0.8 µM)
MIC ([12]; Table 7, read-out: MIC in TSB): 0.25 µg/mL (≈ 0.8 µM)
MIC ([13]; Table 1, read-out: MIC): 1 µg/mL (≈ 3.2 µM)
MIC ([13]; Table 7, read-out: MIC in TSB): 1 µg/mL (≈ 3.2 µM)
MIC ([14]; Table 1, read-out: MIC): 1 µg/mL (≈ 3.2 µM)
MIC ([14]; Table 7, read-out: MIC in TSB): 1 µg/mL (≈ 3.2 µM)
MIC ([15]; Table 1, read-out: MIC): 1 µg/mL (≈ 3.2 µM)
MIC ([15]; Table 7, read-out: MIC in TSB): 1 µg/mL (≈ 3.2 µM)
MIC [16]: > 64 µg/mL
MIC [17]: > 64 µg/mL
MIC [18]: > 64 µg/mL
MIC [19]: > 64 µg/mL
MIC [20]: > 64 µg/mL
MIC [21]: > 64 µg/mL
MIC [22]: 8 µg/mL (≈ 25.6 µM)
MIC [23]: 16 µg/mL (≈ 51.2 µM)
MIC [24]: 8 µg/mL (≈ 25.6 µM)
MIC [25]: 8 µg/mL (≈ 25.6 µM)

Reference: patent US12378211B2, “Carbonic anhydrase inhibitors and antibiotics against multidrug resistant bacteria” (Purdue Research Foundation, priority 2018, dated 2025)
